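In this assay, cells in 96-well plates receive the compound at five concentrations for 48 hours. Endpoints are linearly interpolated between the surrounding concentrations. Abbreviation: GI50, concentration required for 50% inhibition of growth.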 Active and inactive are the calls of the source. Cut-off read from the data, not from the text of the source: active = GI50 up to about 1.1 µM and inactive = higher. *1 amine or outer side, *2 acyl side, *3 side chain or, on linkers, in order; H or OH if unused. Where a SMILES comes first, the peptide text is derived from it. [ ]: non-standard residue; d: D form. The star is where a group is joined. ξ: configuration not given here. X26 = O=C([C@H]1CCC[C@H]1N[*:1])[*:2]; ξW = NC(Cc1c[nH]c2ccccc12)C(=O)O; ξF = NC(Cc1ccccc1)C(=O)O; Boc = CC(C)(C)OC(=O)*; ξK = NCCCCC(N)C(=O)O; ξT = CC(O)C(N)C(=O)O; tBu = CC(C)(C)*
What was measured:
Assay in all cases: NCI-60 cell line screen, 48 h
[1] = test system: TK-10
[2] = test system: OVCAR-8
[3] = test system: 786-0
[4] = test system: EKVX
[5] = test system: A549
[6] = test system: SNB-75
[7] = test system: SNB-19
[8] = test system: HL-60
[9] = test system: SF-295
[10] = test system: HCC 2998
[11] = test system: A498
[12] = test system: OVCAR-3
[13] = test system: HCT-15
[14] = test system: NCI-H460
[15] = test system: COLO 205
[16] = test system: SK-MEL-28
[17] = test system: CCRF-CEM
[18] = test system: MDA-MB-435
[19] = test system: MCF7
[20] = test system: BT-549

| Compound | GI50 [1] | GI50 [2] | GI50 [3] | GI50 [4] | GI50 [5] | GI50 [6] | GI50 [7] | GI50 [8] | GI50 [9] | GI50 [10] | GI50 [11] | GI50 [12] | GI50 [13] [µM] | GI50 [14] | GI50 [15] | GI50 [16] | GI50 [17] | GI50 [18] | GI50 [19] | GI50 [20] |
| --- | --- | --- | --- | --- | --- | --- | --- | --- | --- | --- | --- | --- | --- | --- | --- | --- | --- | --- | --- | --- |
| O=c1ccc2ccccc2c2ccccc12 | 14.5 µM (inactive) | 2.34 µM (inactive) | 2.77 µM (inactive) | 17.3 µM (inactive) | 13.8 µM (inactive) | 2.94 µM (inactive) | 2.82 µM (inactive) | 2.96 µM (inactive) | 3.61 µM (inactive) | 9.64 µM (inactive) | 22.7 µM (inactive) | 3.4 µM (inactive) | 1.87 | 3.98 µM (inactive) | 4.6 µM (inactive) | 5.46 µM (inactive) | 3.2 µM (inactive) | – | – | – |
| CCC1=C(c2ccc(OC)cc2)CC[C@]2(CCNC2=O)[C@@H]1C | 35 µM (inactive) | 42.4 µM (inactive) | 42.5 µM (inactive) | 28.1 µM (inactive) | 37.6 µM (inactive) | 27.4 µM (inactive) | 34.6 µM (inactive) | 51.3 µM (inactive) | 30 µM (inactive) | 28.4 µM (inactive) | 31.3 µM (inactive) | 22.7 µM (inactive) | 28.7 | 28.2 µM (inactive) | 14.4 µM (inactive) | 30.5 µM (inactive) | 24.8 µM (inactive) | 19.6 µM (inactive) | 21.9 µM (inactive) | – |
| Cc1cccc(/C=N/C23CC4CC(CC(C4)C2)C3)c1 | > 100 µM (inactive) | > 100 µM (inactive) | > 100 µM (inactive) | > 100 µM (inactive) | > 100 µM (inactive) | > 100 µM (inactive) | > 100 µM (inactive) | > 100 µM (inactive) | > 100 µM (inactive) | > 100 µM (inactive) | > 100 µM (inactive) | > 100 µM (inactive) | > 100 | > 100 µM (inactive) | > 100 µM (inactive) | > 100 µM (inactive) | > 100 µM (inactive) | – | – | – |
| O=C(/C=C(\Nc1ccccc1O)c1ccccc1)C(=O)NC12CC3CC(CC(C3)C1)C2 | > 10 µM (inactive) | > 10 µM (inactive) | > 10 µM (inactive) | > 10 µM (inactive) | – | > 10 µM (inactive) | – | 3.52 µM (inactive) | > 10 µM (inactive) | > 10 µM (inactive) | > 10 µM (inactive) | > 10 µM (inactive) | > 10 | > 10 µM (inactive) | > 10 µM (inactive) | > 10 µM (inactive) | 4.33 µM (inactive) | > 10 µM (inactive) | > 10 µM (inactive) | – |
| CC1OC(CC(=O)O)Cc2c(O)c3c(c(O)c21)C(=O)C=C(C1=CC(=O)c2c(O)c4c(c(O)c2C1=O)CC(CC(=O)O)OC4C)C3=O (configuration not stated) | 57.9 µM (inactive) | 23.4 µM (inactive) | 21.4 µM (inactive) | 13.5 µM (inactive) | 45.1 µM (inactive) | 59.6 µM (inactive) | > 100 µM (inactive) | 3.03 µM (inactive) | 88.7 µM (inactive) | 46.3 µM (inactive) | 18.9 µM (inactive) | 27 µM (inactive) | 11.6 | 60.8 µM (inactive) | 5.28 µM (inactive) | 14.7 µM (inactive) | 2.75 µM (inactive) | – | – | – |
| COC[C@@H]1[C@H]2OC(C)(C)O[C@H]2C(=O)N1C(=O)c1ccc(OC)cc1 | > 100 µM (inactive) | > 100 µM (inactive) | > 100 µM (inactive) | > 100 µM (inactive) | > 100 µM (inactive) | > 100 µM (inactive) | > 100 µM (inactive) | > 100 µM (inactive) | > 100 µM (inactive) | > 100 µM (inactive) | > 100 µM (inactive) | > 100 µM (inactive) | > 100 | > 100 µM (inactive) | > 100 µM (inactive) | > 100 µM (inactive) | > 100 µM (inactive) | – | – | – |
| CCOC(=O)[C@@]12C(C)=CC(=O)O[C@]1(C)C[C@H]2C#N | > 100 µM (inactive) | > 100 µM (inactive) | > 100 µM (inactive) | > 100 µM (inactive) | > 100 µM (inactive) | 20.8 µM (inactive) | > 100 µM (inactive) | > 100 µM (inactive) | > 100 µM (inactive) | > 100 µM (inactive) | > 100 µM (inactive) | > 100 µM (inactive) | > 100 | > 100 µM (inactive) | > 100 µM (inactive) | > 100 µM (inactive) | > 100 µM (inactive) | – | – | – |
| COC(=O)/C(C)=C/[N+](=O)[O-] | 16.3 µM (inactive) | 22.2 µM (inactive) | 17.7 µM (inactive) | 15.9 µM (inactive) | 21.7 µM (inactive) | 16.3 µM (inactive) | 17.1 µM (inactive) | 14.1 µM (inactive) | 16.6 µM (inactive) | 17.3 µM (inactive) | 23.3 µM (inactive) | 16 µM (inactive) | 13.5 | 22.2 µM (inactive) | 4.67 µM (inactive) | – | 2.59 µM (inactive) | – | – | – |
| O=C1NN=C(O)C2C3c4ccccc4C(c4ccccc43)C12 (configuration not stated) | > 100 µM (inactive) | > 100 µM (inactive) | > 100 µM (inactive) | > 100 µM (inactive) | > 100 µM (inactive) | > 100 µM (inactive) | > 100 µM (inactive) | > 100 µM (inactive) | > 100 µM (inactive) | > 100 µM (inactive) | > 100 µM (inactive) | > 100 µM (inactive) | > 100 | > 100 µM (inactive) | > 100 µM (inactive) | > 100 µM (inactive) | > 100 µM (inactive) | – | > 100 µM (inactive) | > 100 µM (inactive) |
| Oc1ccc(N=C2CCC(=C(c3ccccc3)c3ccc(Nc4ccc(O)cc4)cc3)CC2)cc1 | > 100 µM (inactive) | 48.5 µM (inactive) | 78.7 µM (inactive) | – | 83.9 µM (inactive) | – | 78.5 µM (inactive) | – | > 100 µM (inactive) | 64.3 µM (inactive) | > 100 µM (inactive) | – | > 100 | 85.7 µM (inactive) | 33.3 µM (inactive) | > 100 µM (inactive) | 88.9 µM (inactive) | 34.5 µM (inactive) | > 100 µM (inactive) | – |
| O=C1C=C(Nc2ccc(Cl)cc2C(=O)c2ccccc2)c2ccccc2C1=O | > 100 µM (inactive) | > 100 µM (inactive) | > 100 µM (inactive) | > 100 µM (inactive) | > 100 µM (inactive) | > 100 µM (inactive) | > 100 µM (inactive) | > 100 µM (inactive) | > 100 µM (inactive) | > 100 µM (inactive) | > 100 µM (inactive) | > 100 µM (inactive) | > 100 | > 100 µM (inactive) | > 100 µM (inactive) | > 100 µM (inactive) | > 100 µM (inactive) | – | – | – |
| O=C1c2ccccc2C(=O)c2sc(Nc3ccccc3Cl)nc21 | 19.7 µM (inactive) | 5.85 µM (inactive) | 14.6 µM (inactive) | 14.3 µM (inactive) | 19.8 µM (inactive) | 13.6 µM (inactive) | 14.5 µM (inactive) | 0.713 µM (active) | 16.1 µM (inactive) | 18.5 µM (inactive) | 16.2 µM (inactive) | 10.7 µM (inactive) | 9.38 | 12.9 µM (inactive) | 14.6 µM (inactive) | 15.1 µM (inactive) | 2.75 µM (inactive) | – | 14.3 µM (inactive) | 16 µM (inactive) |
| Cc1cccc(NC(=O)C(=O)Cc2nc3ccccc3nc2O)c1C | > 100 µM (inactive) | > 100 µM (inactive) | > 100 µM (inactive) | > 100 µM (inactive) | > 100 µM (inactive) | 84.9 µM (inactive) | > 100 µM (inactive) | > 100 µM (inactive) | > 100 µM (inactive) | > 100 µM (inactive) | > 100 µM (inactive) | > 100 µM (inactive) | > 100 | > 100 µM (inactive) | > 100 µM (inactive) | > 100 µM (inactive) | > 100 µM (inactive) | – | – | – |
| CN(C)CCNc1ccc(CO)c2sc3ccc(O)cc3c(=O)c12 | 8.77 µM (inactive) | 1.97 µM (inactive) | 1.13 µM (inactive) | 5.13 µM (inactive) | 0.286 µM (active) | 2.42 µM (inactive) | 2.46 µM (inactive) | 0.258 µM (active) | 1 µM (active) | 2.58 µM (inactive) | 6.89 µM (inactive) | 10.6 µM (inactive) | 2.31 | 0.0259 µM (active) | 4.3 µM (inactive) | 7.8 µM (inactive) | 0.171 µM (active) | 1.56 µM (inactive) | – | 2.62 µM (inactive) |
| O=C(N/N=C/c1cc(Cl)cc(Cl)c1O)c1ccncc1 | > 100 µM (inactive) | 70.6 µM (inactive) | 57.9 µM (inactive) | 22 µM (inactive) | > 100 µM (inactive) | > 100 µM (inactive) | > 100 µM (inactive) | 26.4 µM (inactive) | 60.1 µM (inactive) | > 100 µM (inactive) | > 100 µM (inactive) | 32.2 µM (inactive) | 29.7 | 39 µM (inactive) | > 100 µM (inactive) | > 100 µM (inactive) | 31.2 µM (inactive) | – | – | – |
| CC(OC(C)(C)C)C1NC(=O)C(CCCCNC(=O)OC(C)(C)C)NC(=O)C(Cc2c[nH]c3ccccc23)NC(=O)C(Cc2ccccc2)NC(=O)[C@H]2CCC[C@H]2NC(=O)C(Cc2ccccc2)NC1=O (some centres not stated) (cyclo([X26][ξF][ξW][ξK](Boc)[ξT](tBu)[ξF])) | – | 18.2 µM (inactive) | > 100 µM (inactive) | > 100 µM (inactive) | 73.3 µM (inactive) | 5.3 µM (inactive) | 30 µM (inactive) | > 100 µM (inactive) | 9.79 µM (inactive) | 12.2 µM (inactive) | – | > 100 µM (inactive) | > 100 | 38.2 µM (inactive) | 18.9 µM (inactive) | > 100 µM (inactive) | 9.06 µM (inactive) | 29.9 µM (inactive) | 11.6 µM (inactive) | – |

Reference: ChEMBL document CHEMBL1201862, “PubChem BioAssay data set” (2004)
